For the data set, the system named is rodent lifetime carcinogenesis bioassay, tumor incidence TD50. As to the kind of experiment: carcinogenic potency in animals, long-term in vivo studies, CPDB compilation (AID 1745844).

Active and inactive are the calls of the source. How the calls were made is not given here.

Carcinogen call and TD50 data for eight molecules are collected here from PubChem BioAssay AID1745844 (Carcinogenic Potency Database (CPDB), 2022).

For the molecule `[O]=[Nb](=[O])[OH]`, the carcinogen call by setting is: (mouse, strain Charles River CD1, both sexes, in drinking water, site: any site (literature study), lesion: malignant tumor, dosed 135 weeks, study length 135 weeks) “negative (inactive)”; (mouse, strain Charles River CD1, both sexes, in drinking water, site: any site (literature study), lesion: one or several types, types not named, dosed 135 weeks, study length 135 weeks) “negative (inactive)”; (mouse, strain Charles River CD1, both sexes, in drinking water, site: liver, lesion: one or several types, types not named, dosed 135 weeks, study length 135 weeks) “negative (inactive)”; (mouse, strain Charles River CD1, both sexes, in drinking water, site: lung, lesion: one or several types, types not named, dosed 135 weeks, study length 135 weeks) “negative (inactive)”.

The TD50 is the dose at which the toxic effect under study appears in half of the subjects. `CC1CN(N=O)CC(C)N1N=O` (configuration not stated): the TD50 runs as follows: (hamster, strain Syrian Golden, males, by gavage, site: any site (literature study), lesion: several types, types named in the paper, dosed 35 weeks, study length 76 weeks) 0.932 mg/kg/day; (hamster, strain Syrian Golden, males, by gavage, site: forestomach, lesion: papilloma, dosed 35 weeks, study length 76 weeks) 3.1 mg/kg/day; (hamster, strain Syrian Golden, males, by gavage, site: liver, lesion: angiosarcoma, dosed 35 weeks, study length 76 weeks) 8.3 mg/kg/day; (hamster, strain Syrian Golden, males, by gavage, site: lung, lesion: adenoma, dosed 35 weeks, study length 76 weeks) 6.04 mg/kg/day.

With `CCC(C)=NO`, the TD50 runs as follows: (mouse, strain Charles River CD1, females, inhaled, site: liver, lesion: hepatocellular adenoma, dosed 78 weeks, study length 78 weeks) 2440 mg/kg/day; (mouse, strain Charles River CD1, females, inhaled, site: lung, lesion: adenoma, dosed 78 weeks, study length 78 weeks) 5880 mg/kg/day; (mouse, strain Charles River CD1, males, inhaled, site: liver, lesion: hepatocellular adenoma, dosed 78 weeks, study length 78 weeks) 1460 mg/kg/day; (mouse, strain Charles River CD1, males, inhaled, site: liver, lesion: hepatocellular carcinoma, dosed 78 weeks, study length 78 weeks) 810 mg/kg/day; (mouse, strain Charles River CD1, males, inhaled, site: liver, lesion: several types, types named in the paper, dosed 78 weeks, study length 78 weeks) 534 mg/kg/day; (mouse, strain Charles River CD1, males, inhaled, site: lung, lesion: adenoma, dosed 78 weeks, study length 78 weeks) 1100 mg/kg/day. For the same molecule, the TD50 is, setting by setting: (rat, strain Fischer 344, females, inhaled, site: liver, lesion: hepatocellular adenoma, dosed 113 weeks, study length 113 weeks) 804 mg/kg/day; (rat, strain Fischer 344, males, inhaled, site: liver, lesion: hepatocellular adenoma, dosed 113 weeks, study length 113 weeks) 118 mg/kg/day; (rat, strain Fischer 344, males, inhaled, site: liver, lesion: hepatocellular carcinoma, dosed 113 weeks, study length 113 weeks) 242 mg/kg/day; (rat, strain Fischer 344, males, inhaled, site: liver, lesion: several types, types named in the paper, dosed 113 weeks, study length 113 weeks) 74.5 mg/kg/day; (rat, strain Fischer 344, males, inhaled, site: mammary gland, lesion: fibroadenoma, dosed 113 weeks, study length 113 weeks) 346 mg/kg/day; (rat, strain Fischer 344, males, inhaled, site: skin, lesion: fibroma, dosed 113 weeks, study length 113 weeks) 84.8 mg/kg/day.

With `CC(Cl)C=O` (configuration not stated), the TD50 runs as follows: (mouse, strain Ha/ICR, females, by gavage, site: forestomach, lesion: one or several types, types not named, dosed 89 weeks, study length 89 weeks) 12.9 mg/kg/day; (mouse, strain Ha/ICR, males, by gavage, site: forestomach, lesion: one or several types, types not named, dosed 89 weeks, study length 89 weeks) 22.7 mg/kg/day.

For the molecule `Cc1c(N)cccc1N`, the TD50 is, setting by setting: (mouse, strain B6C3F1, females, in feed, site: any site (literature study), lesion: several types, types named in the paper, dosed 103 weeks, study length 105 weeks) 75.9 mg/kg/day; (mouse, strain B6C3F1, females, in feed, site: liver, lesion: hepatocellular adenoma + hepatocellular carcinoma + neoplastic nodule, dosed 103 weeks, study length 105 weeks) 129 mg/kg/day; (mouse, strain B6C3F1, females, in feed, site: liver, lesion: hepatocellular carcinoma, dosed 103 weeks, study length 105 weeks) 181 mg/kg/day (inactive); (mouse, strain B6C3F1, males, in feed, site: all sites, lesion: lymphoma, dosed 103 weeks, study length 104 weeks) 20.5 mg/kg/day (inactive); (rat, strain Fischer 344, females, in feed, site: liver, lesion: hepatocellular adenoma + hepatocellular carcinoma + neoplastic nodule, dosed 103 weeks, study length 105 weeks) 455 mg/kg/day; (rat, strain Fischer 344, males, in feed, site: liver, lesion: hepatocellular adenoma + hepatocellular carcinoma + neoplastic nodule, dosed 103 weeks, study length 104 weeks) 117 mg/kg/day. Moreover, the TD50 was 117 mg/kg/day (inactive) (rat, strain Fischer 344, males, in feed, site: liver, lesion: hepatocellular carcinoma + neoplastic nodule, dosed 103 weeks, study length 104 weeks) and 140 mg/kg/day (rat, strain Fischer 344, males, in feed, site: pancreatic islets, lesion: islet-cell adenoma, dosed 103 weeks, study length 104 weeks). Also, under “rat, strain Fischer 344, females, in feed, site: any site (literature study), lesion: several types, types named in the paper, dosed 103 weeks, study length 105 weeks”, the carcinogen call is “negative (inactive)”.

Take `O=C1OC(O)C(C(Cl)Cl)=C1Cl` (configuration not stated): the TD50 by setting is: (rat, strain Wistar, females, in drinking water, site: adrenal gland, lesion: cortical adenoma, dosed 104 weeks, study length 104 weeks) 10.6 mg/kg/day; (rat, strain Wistar, females, in drinking water, site: all sites, lesion: lymphoma and leukemia, combined, dosed 104 weeks, study length 104 weeks) 41.5 mg/kg/day; (rat, strain Wistar, females, in drinking water, site: liver, lesion: cholangioadenoma/carcinoma, dosed 104 weeks, study length 104 weeks) 2.73 mg/kg/day; (rat, strain Wistar, females, in drinking water, site: liver, lesion: cholangiocarcinoma, dosed 104 weeks, study length 104 weeks) 122 mg/kg/day; (rat, strain Wistar, females, in drinking water, site: liver, lesion: cholangioma, dosed 104 weeks, study length 104 weeks) 2.73 mg/kg/day; (rat, strain Wistar, females, in drinking water, site: liver, lesion: hepatocellular adenoma, dosed 104 weeks, study length 104 weeks) 16 mg/kg/day. In addition, the TD50 (rat, strain Wistar, females, in drinking water, site: liver, lesion: hepatocellular tumor, dosed 104 weeks, study length 104 weeks) was 14.9 mg/kg/day; the TD50 (rat, strain Wistar, females, in drinking water, site: mammary gland, lesion: adenocarcinoma, dosed 104 weeks, study length 104 weeks) was 14 mg/kg/day; the TD50 (rat, strain Wistar, females, in drinking water, site: mammary gland, lesion: fibroadenoma, dosed 104 weeks, study length 104 weeks) is 5.13 mg/kg/day; the TD50 (rat, strain Wistar, females, in drinking water, site: mammary gland, lesion: several types, types named in the paper, dosed 104 weeks, study length 104 weeks) is 13 mg/kg/day; the TD50 (rat, strain Wistar, females, in drinking water, site: thyroid gland, lesion: follicular-cell adenoma, dosed 104 weeks, study length 104 weeks) was 0.645 mg/kg/day; the TD50 (rat, strain Wistar, females, in drinking water, site: thyroid gland, lesion: follicular-cell carcinoma, dosed 104 weeks, study length 104 weeks) was 5.2 mg/kg/day. For the same molecule, the TD50 is, setting by setting: (rat, strain Wistar, females, in drinking water, site: thyroid gland, lesion: several types, types named in the paper, dosed 104 weeks, study length 104 weeks) 0.741 mg/kg/day; (rat, strain Wistar, males, in drinking water, site: adrenal gland, lesion: cortical adenoma, dosed 104 weeks, study length 104 weeks) 9.68 mg/kg/day; (rat, strain Wistar, males, in drinking water, site: all sites, lesion: lymphoma and leukemia, combined, dosed 104 weeks, study length 104 weeks) 53.1 mg/kg/day; (rat, strain Wistar, males, in drinking water, site: liver, lesion: cholangioma, dosed 104 weeks, study length 104 weeks) 31.4 mg/kg/day; (rat, strain Wistar, males, in drinking water, site: liver, lesion: hepatocellular adenoma, dosed 104 weeks, study length 104 weeks) 24.4 mg/kg/day; (rat, strain Wistar, males, in drinking water, site: liver, lesion: hepatocellular carcinoma, dosed 104 weeks, study length 104 weeks) 53.4 mg/kg/day. Also, the TD50 was 17.7 mg/kg/day (rat, strain Wistar, males, in drinking water, site: liver, lesion: hepatocellular tumor, dosed 104 weeks, study length 104 weeks); 23.4 mg/kg/day (rat, strain Wistar, males, in drinking water, site: lung, lesion: alveolar/bronchiolar adenoma, dosed 104 weeks, study length 104 weeks); 16 mg/kg/day (rat, strain Wistar, males, in drinking water, site: pancreatic islets, lesion: islet-cell adenoma, dosed 104 weeks, study length 104 weeks); 16.6 mg/kg/day (rat, strain Wistar, males, in drinking water, site: pancreatic islets, lesion: several types, types named in the paper, dosed 104 weeks, study length 104 weeks); 0.532 mg/kg/day (rat, strain Wistar, males, in drinking water, site: thyroid gland, lesion: follicular-cell adenoma, dosed 104 weeks, study length 104 weeks); 3.25 mg/kg/day (rat, strain Wistar, males, in drinking water, site: thyroid gland, lesion: follicular-cell carcinoma, dosed 104 weeks, study length 104 weeks). Further, for the setting “rat, strain Wistar, males, in drinking water, site: thyroid gland, lesion: several types, types named in the paper, dosed 104 weeks, study length 104 weeks”, the TD50 is 0.678 mg/kg/day.

For the molecule `CCN(CC(F)(F)F)N=O`, the TD50 (rat, strain Sprague-Dawley, males, by gavage, site: esophagus, lesion: papillary carcinoma, dosed 88 weeks, study length 88 weeks) is 2.52 mg/kg/day and the TD50 (rat, strain Sprague-Dawley, males, by gavage, site: nasal cavity, lesion: several types, types named in the paper, dosed 88 weeks, study length 88 weeks) is 7.34 mg/kg/day.

Take `CCCCCCCCCc1ccc(OCCO)cc1`: where the note is “mouse, strain B6C3F1, females, in feed, site: liver, lesion: hepatocellular adenoma, dosed 104 weeks, study length 104 weeks”, the TD50 was 8670 mg/kg/day (inactive). The carcinogen call is, setting by setting: (mouse, strain B6C3F1, females, in feed, site: liver, lesion: hepatocellular carcinoma, dosed 104 weeks, study length 104 weeks) “negative (inactive)”; (rat, strain F344/DuCrj, females, in feed, site: liver, lesion: hepatocellular adenoma, dosed 104 weeks, study length 104 weeks) “negative (inactive)”; (rat, strain F344/DuCrj, females, in feed, site: liver, lesion: one or several types, types not named, dosed 52 weeks, study length 52 weeks) “negative (inactive)”.
